For series [1], the system named is rat jejunal sac. In words: In vitro permeation of rat jejunal sac by iron complexes. As for the experimental part:
Rats (male Sprague Dawley, 60 g) were killed and the jejunum removed, everted and cut into three segments (4 cm length). The segments were tied at both ends, filled with Krebs Ringer buffer (0.2 ml) and incubated in Krebs Ringer buffer containing the appropriate ^59 Fe compound at 37° C. for periods up to 90 minutes. The contents of the sac were counted for ^59 Fe and measured spectrophotometrically.

Series [2] in a line: In vivo cat, duodenal: 59Fe blood level and tissue distribution. As for the experimental part: (§1) Cats were anaesthetised with chloralase (60 mg/kg) and pentobarbitone sodium (60 mg/kg) (i.p.), having been kept free of food for 18 hours. In each animal the trachea was cannulated to maintain a clear airway and to allow positive pressure artificial respiration if necessary. The left femoral vien was cannulated for the intravenous administration of drugs and physiological saline solution. Arterial blood pressure was monitored by a Washington pressure transducer through a cannula inserted into the femoral artery of the right hind leg. Arterial blood samples were taken at appropriate intervals from a short cannula inserted into an external carotid artery. Body temperature was monitored with a rectal thermometer. Each animal was given heparin (1000 iu/kg) as anticoagulant and additional small amounts of pentabarbitone sodium if needed to maintain a satisfactory level of anaesthesia.
In those animals where the iron compounds were to be administered into the duodenum, a mid-line incision was made in the abdomen to reveal the intestines. A cannula was then inserted through a small cut such that its tip rested approximately 5 cm below the opening of the bile duct. The cannula was then sutured in place and the abdominal wall closed with stitches.
The distribution of ^59 Fe in the tissues of the animal after the same duodenal experiment to which FIG. 7 relates were investigated and the typical results are shown in Table 7. The amount of ^59 Fe administered in this experiment was 10 μCi or 5.327×10^6 cpm into a 2.9 kg cat. It will be seen that the distribution of the ^59 Fe after 4 hours was similar to that after intravenous infusion, with low levels in the kidney and urine and high levels in both the spleen and bone marrow.
The distribution of ^59 Fe in the tissues of the animal after the same duodenal experiment were investigated and the typical results are shown in Table 8. The amount of ^59 Fe administered in this experiment was 10 μCi or 2.65×10^6 cpm into a 2.9 kg cat. It will be seen that, although some ^59 Fe entered the tissues, rather low levels were detected in the spleen and bone marrow (sternum) whereas a large proportion of the dose was located in the urine.

The format of series [3] is in vivo, cat. On the procedure:
as §1
The apparent volume of distribution of the compound was calculated by extrapolation of the log-linear blood concentration curve to zero.
The amount of ^59 Fe administered in this experiment was 4 μCi of 2.2×10^6 cpm.

Series [4] in a line: In vivo test of action of iron compounds in the rat (59Fe into duodenum). On the procedure:
Groups of rats (300-350 g) were anaesthetised with nembutal (0.25 ml) and then with ether. A mid-line incision was made and the ^59 Fe labelled sample (100 μg Fe, 10 μCi) was passed into the lumen of the duodenum via a small incision. The abdominal well was then closed with a suture. The animals were sacrificed 1, 2, 4 and 6 hours after the administration of the compound and the various organs were monitored for their ^59 Fe content. […] In the case of the data for blood and sternum (bone marrow) the counts given are cpm/ml and cpm/g respectively, whilst in all other cases they are the total cpm counts.

In a further series the test system is haemoglobin. The experiment in a line: Binding to haemoglobin by gel permeation elution profile of 59Fe. As to conditions: 1 mM complex, NaCl 130 mM, pH 7.4, PD-10 column.
The subject of series [5] is rat jejunal sac. It counts as in vitro ADME, rat (male Sprague Dawley). The source says: The procedure described above was used to compare the uptake of iron from buffer containing differing molar proportions of maltol:iron.
A further series deals with apotransferrin. The experiment in a line: Exchange of iron(III) between complex and apotransferrin. An excerpt: (§2) In order to solubilise iron(III) hydroxide, log Ksol must be greater than 0.
The test system of another series is human erythrocytes. Format: in vitro ADME. As to conditions: not told. As for the experimental part:
Following this period of incubation an aliquot of the erythrocyte/medium mixture was placed above a layer of silicone oil (.rho.=1.06) and the erythrocytes separated by centrifugation through the oil. The ^59 Fe levels associated with the erythrocytes and the incubation medium were then counted and presented as a distribution ratio (concentration in erythrocytes/concentration in medium).

The next series relates to erythrocyte ghosts. Format: binding, human. The source says:
Experiments to determine the percentage of ^59 Fe associated with erthrocyte ghosts after lysis confirm this hypothesis. In one experiment, lysis was initiated by a small volume of 10% v/v Triton X100 and in a second experiment by a 10 fold excess of water. […] Such binding is of course undesirable as the complex is likely to remain tightly bound to the membrane by electrostatic interactions and not be transmitted across it.

The procedure of series [6]: An indication of the properties of a compound in this respect is provided by the value of the partition coefficient (Kpart) obtained on partition between n-octanol and Tris hydrochloride (20 mM, pH 7.4; Tris representing 2-amino-2-hydroxymethylpropane 1,3-diol) at 20° C. and expressed as the ratio (concentration of compound in organic phase)/(concentration of compound in aqueous phase).
Acid washed glassware is used throughout and, following mixing for 1 minute, the aqueous/n-octanol mixture is centrifuged at 1000 g for 30 seconds. The two resulting phases are separated for a concentration determination by spectrophotometry on each.

Excerpt in series [7]: as §2
The source holds these as a separate data set.

Series [8] has as its system bovine serum albumen (BSA). In words: Binding to bovine serum albumen (BSA). To be noted: column procedure as for haemoglobin.
Series [9] can be described thus: Affinity of maltol for copper (II), zinc (II), calcium and magnesium. It counts as physicochemical. To be noted: compared with iron.
Excerpt: as §2

A short description of series [10]: Metabolism of free hydroxypyrone.
[11] abbreviates: relative to ferric chloride as 1, 37° C.
Where [12] appears, read: iron EDTA duodenal, 2.65×10^6 cpm.
The mark [13] stands for this setting: n-octanol/tris hcl, 100 µM, pH 7.4.

Read-outs that look alike come from different tables or passages of the source.

This is an account of results in patent US5028411A, “Pharmaceutical compositions” (priority 1984, dated 1991).

Turning to `[Cl][Fe]([Cl])[Cl]` [FeCl3, ferric chloride], in the series on rat jejunal sac [1] (setting [11]), the “Relative iron uptake, 15 minutes” value was determined as 1 and the “Relative iron uptake, 60 minutes” value was 1.
With `O=C([O-])/C=C/C(=O)[O-].[Fe+2]` [Fe^II fumarate], in the series with rat jejunal sac [1], the “Relative iron uptake, 15 minutes” value was found to be 4.0 and the “Relative iron uptake, 60 minutes” value is on record as 1.8.
On to `O=C([O-])CCC(=O)[O-].[Fe+2]` [Fe^II succinate], for which, in the series on rat jejunal sac [1], the “Relative iron uptake, 15 minutes” value is listed as 2.0 and the “Relative iron uptake, 60 minutes” value amounted to 1.0.
For `O=S(=O)([O-])[O-].[Fe+2]` [Fe^II sulphate, iron(II) sulphate], in the series on rat jejunal sac [1], the “Relative iron uptake, 15 minutes” value amounted to 2.4 and the “Relative iron uptake, 60 minutes” value turned out to be 1.4.
For `O=C([O-])CC(O)(CC(=O)[O-])C(=O)[O-].[Fe+3]` [Fe^III citrate] the same measures were 2.0 and 1.8.
`O=C([O-])CN(CCN(CC(=O)[O-])CC(=O)[O-])CC(=O)[O-].[Fe+3]` [Iron EDTA]: the “plasma levels of radioactivity” value in series [2] (duodenal) was “hardly exceeded the background level”. Further, in series [2] (setting [12]), the “Net 59Fe content, Heart” value came out at 188 cpm/g; the “Net 59Fe content, Kidney” value is 1,762 cpm/g; the “Net 59Fe content, Liver” value came to 499 cpm/g; the “Net 59Fe content, Skeletal muscle” value stood at 117 cpm/g. In addition, in series [2] (setting [12]), the “Net 59Fe content, Spleen” value amounted to 200 cpm/g; the “Net 59Fe content, Sternum (bone marrow)” value came out at 917 cpm/g; the “Net 59Fe content, Urine” value is 36,306 cpm/g; the “Net total 59Fe content, Heart” value is 2,878 cpm. Besides, in [2] (setting [12]), the “Net total 59Fe content, Kidney” value is 19,913 cpm; the “Net total 59Fe content, Liver” value is 29,574 cpm; the “Net total 59Fe content, Spleen” value is 880 cpm; the “Net total 59Fe content, Urine” value was 544,596 cpm. Further, in series [3] (cat, in vivo, iv), the “dose located in the urine” value is on record as “over 50%” and the “rate constant of the elimination from the blood of the linear phase” value is 0.023 min⁻¹. In series [3] (in vivo, iv), the “Net 59Fe content, Heart” value stood at 209 cpm/g; the “Net 59Fe content, Kidney” value was 1,134 cpm/g; the “Net 59Fe content, Liver” value is on record as 261 cpm/g; the “Net 59Fe content, Spleen” value is on record as 162 cpm/g. Moreover, in series [3] (in vivo, iv), the “Net 59Fe content, Sternum (bone marrow)” value was 1,164 cpm/g; the “Net 59Fe content, Urine” value is recorded as 62,156 cpm/g; the “Net total 59Fe content, Heart” value is 3,248 cpm; the “Net total 59Fe content, Kidney” value is 21,770 cpm. Further, in series [3] (in vivo, iv), the “Net total 59Fe content, Liver” value is given as 19,600 cpm; the “Net total 59Fe content, Spleen” value was 1,814 cpm; the “Net total 59Fe content, Urine” value is on record as 1,180,900 cpm; the “kinetics of loss of radioactivity from blood” value is given as “at least a two-component process”. In addition, the “Net 59Fe content, Skeletal muscle” value in series [3] (iron EDTA i.v., adjusted to 2.2×10^6 cpm) is 95 cpm/g. The “59Fe levels in the intestine wall and blood” value in [4] (100 μg Fe) is “extremely low”. In addition, in series [4] (100 μg Fe, compared with maltol complex), the “iron transfer to / 59Fe levels in bone marrow and spleen” value is reported as “reduced rates”. Also, the “59Fe in gut washings” value in [4] (100 μg Fe, non-absorbed iron) is “remain high for 4 hours”.
Regarding `Cc1occc(=O)c1[O-].Cc1occc(=O)c1[O-].Cc1occc(=O)c1[O-].[Fe+3]` [Iron maltol], the binding to haemoglobin entry in the series with haemoglobin is recorded as “no evidence is found for binding”. For the same compound, in [3] (cat, in vivo, iv), the “59Fe directed to the bone marrow” value is given as “approximately 90%”; the “dose located in combined tissue of heart, liver and spleen” value is “approximately 10%”; the “dose located in the urine” value is listed as “less than 0.2%”. Moreover, in series [3] (in vivo, iv), the “Net 59Fe content, Heart” value came out at 490 cpm/g; the “Net 59Fe content, Kidney” value is on record as 546 cpm/g; the “Net 59Fe content, Liver” value is given as 510 cpm/g; the “Net 59Fe content, Skeletal muscle” value was found to be 0 cpm/g. Further, in [3] (in vivo, iv), the “Net 59Fe content, Spleen” value is recorded as 14,890 cpm/g; the “Net 59Fe content, Sternum (bone marrow)” value was 3,200 cpm/g; the “Net 59Fe content, Urine” value is given as 152 cpm/g; the “Net total 59Fe content, Heart” value is given as 7,056 cpm. Further, in series [3] (in vivo, iv), the “Net total 59Fe content, Kidney” value was 6,661 cpm; the “Net total 59Fe content, Liver” value is 53,550 cpm; the “Net total 59Fe content, Skeletal muscle” value is listed as 0 cpm; the “Net total 59Fe content, Spleen” value was 125,076 cpm. Besides, in series [3] (in vivo, iv), the “Net total 59Fe content, Urine” value is on record as < 3,000 cpm; the “apparent volume of distribution” value was “a value between that of the total extracellular space of the animal and the blood volume”. The “Iron uptake into serosal contents of the sac” value with rat jejunal sac [5] worked out at 30.0 n mole. Also, in the series on rat jejunal sac [5] (at 2:1 ratio of maltol:iron), the “proportion of total iron present as 3:1 complex” value is on record as 13%. The “lability of the complex” value in the series on apotransferrin is on record as “extremely labile”. Besides, the “time for erythrocyte uptake to reach equilibrium” value in the series on human erythrocytes is on record as “about 15 minutes”. Besides, in the series on erythrocyte ghosts, the “Iron associated with ghosts, Hypotonic lysis” value is recorded as less than 5% and the “Iron associated with ghosts, Triton lysis” value is given as less than 1%. For the same compound, in [6] (setting [13]), the “partition coefficient Kpart (concentration in n-octanol/concentration in aqueous phase)” value is given as 0.50. In [7], the thermodynamic stability constant came out at 30. In addition, in the series on rat jejunal sac [1], the “Relative iron uptake, 15 minutes” value worked out at 40; the “Relative iron uptake, 60 minutes” value came to 5.8; the “concentration range over which uptake increased linearly” value is 500 to 10000 µM; the “period over which uptake was linear” value turned out to be 90 min. Moreover, the “binding to bovine serum albumen” value in series [8] is on record as “little ability to bind to BSA”.
Consider `Cc1occc(=O)c1O` [maltol, 3-hydroxy-2-methyl-4-pyrone], for which the “deposition of iron in the bone marrow over time” value in series [4] (6 hour period) is “continuously throughout the 6 hour period at an apparently constant rate”. In addition, in series [9], the “affinity for copper (II), zinc (II), calcium and magnesium” value was “lower affinity”. In [10], the metabolism entry is “rapidly metabolized”. For the same compound, the “partition coefficient Kpart (concentration in n-octanol/concentration in aqueous phase)” value in series [6] (n-octanol/Tris hydrochloride 20 mM, pH 7.4, 10^-4 M, spectrophotometry) came to 0.66. Moreover, the “affinity for iron (log β3)” value in series [7] is reported as 30.
Consider iron(II) gluconate [Fe^II gluconate], for which, in the series on rat jejunal sac [1], the “Relative iron uptake, 15 minutes” value was 1.6 and the “Relative iron uptake, 60 minutes” value is 0.8.
As for iron(III) ascorbate [Fe^III ascorbate], in series [6] (setting [13]), the “partition coefficient Kpart (concentration in n-octanol/concentration in aqueous phase)” value is 0.0015. Also, in the series with rat jejunal sac [1], the “Relative iron uptake, 15 minutes” value is recorded as 0.4 and the “Relative iron uptake, 60 minutes” value amounted to 0.8.
